Consider 59 compounds from a melting point compilation (Tetko et al.; mined from patent text by program, amines drawn as free bases though some values may be those of a salt).

SMILES strings stand for the structures.

`CCCC(CCC)C(=O)N[C@H](C(=O)N[C@H](CO)Cc1c[nH]c2ccccc12)[C@@H](C)CC` returned a melting point of 190 to 191 °C.
As to `CC1(C)CCC(C)(C)c2cc(COc3ccc(C(=O)O)cc3-c3ccccc3)ccc21`, the melting point lay in the range of 195 to 198 °C.
`CCCCCCCNC(=O)Oc1ccc2c(c1)CCCN2` showed a melting point of 67 °C.
As for `CCCCc1oc2ccccc2c1C(=O)Nc1ccc(-c2ccc(OCc3nnn[nH]3)cc2)cc1`, the melting point lay within 210 to 212 °C.
Consider `COc1ccc2cnc(Cl)nc2c1C(C)C`, for which the melting point lay in the range of 135 to 137 °C.
Compound `CCOC(=O)C(Cl)=NNc1ccc(Cl)cc1` showed a melting point of 145 to 148 °C.
Turning to `CCOC(=O)CSC(=S)N1Cc2[nH]c3ccccc3c2CC1C(=O)O` (centres undefined), the melting point lay in the range of 190 to 192 °C.
`N#Cc1cc(S(=O)c2ccccc2)[nH]c1-c1ccc(Cl)cc1` (centres undefined) had a melting point of 169 to 170 °C.
Turning to `CC(C(=O)O)c1ccc2c(c1)Sc1ncccc1CC2=O` (centres undefined), the melting point lay in the range of 150 to 151 °C.
As for `CN(CC(=O)OC(C)(C)C)Cc1ccc(CCn2cnc3cc(-c4ccc(Cl)cc4)sc3c2=O)cc1`, the melting point came to 130 °C.
`O=C(O)CN1CCN(Cc2ccccc2)C1=O` returned a melting point of 132 to 133 °C.
`Oc1ccccc1-c1cc(-c2ccc(F)c(F)c2)cc(-c2ccco2)n1` had a melting point of 147 to 148 °C.
In turn, `COc1ccc(N2CCN(c3c(C)c(C)c4c(c3C)C(O)(c3ccc(C)cc3)C(C)(C)O4)CC2)cc1` (centres undefined) displayed a melting point of 145 to 147 °C.
`CNC(=O)C(=NOC)c1ccccc1COc1ccc2c(c1)OCC2=NOC` gave a melting point of 143 to 145 °C.
The figure for `CNCCCn1c(-c2ccc(Br)cc2)csc1=Nc1ccccc1` is 143 to 148 °C; for `COc1cccc(-c2cnn(-c3cccc(C(=O)O)c3)c2)c1` it is 157 to 158 °C.
`COc1cc(C(=O)NS(=O)(=O)c2ccccc2C)ccc1Cc1cccc2ccc(NC(=O)CC3CCCC3)cc12` registered a melting point of 248 to 249 °C.
`[N-]=[N+]=N[C@@H](C(=O)O)C(c1ccccc1)c1ccccc1` had a melting point of 108 to 110 °C.
Consider `O=C(CCOCc1ccccc1)Nc1ccc(C(=O)Nc2ccccc2[N+](=O)[O-])cc1`, for which the melting point stood at 140 °C.
Compound `O=C(Cn1nccc1-c1ccc(Oc2ccc(F)cc2)cc1)N1CCCC1` showed a melting point of 90 to 95 °C.
Next, `c1ccc(Oc2ccc(C3(Cn4cncn4)OCCCO3)cc2)cc1`: 129 to 130 °C; `Fc1ccc(Cn2c(NC3CCN(C4CCCN(Cc5ccccc5)C4)CC3)nc3ccccc32)cc1` (centres undefined): 175 °C; `CC(C)(C)NS(=O)(=O)c1ccc(-c2cn(-c3cc(-c4ccc(C(F)(F)F)cc4)cc(C(F)(F)F)n3)cn2)s1`: more than 250 °C.
`COc1cc(N)c(Cl)cc1C(=O)N[C@H]1CCN(CCCC(=O)N2CCC(=O)CC2)C[C@H]1OC` (relative stereo) gave a melting point of 157 °C.
The compound `CCCCCC(=O)CCC1C(=O)NC(=O)N1CCCCCCC(=O)O` (centres undefined) returned a melting point of 84.5 to 86 °C.
On to `CCCNC(=S)NS(=O)(=O)c1cc2c(cc1OC)OCCC2CNC(=O)N1CC(C)=C(CC)C1=O` (centres undefined), for which the melting point was in the range of 96 to 98 °C.
The figure for `C=C(C)N(c1c(C)cccc1C)S(C)(=O)=O` is 80 to 81 °C.
For `S=C(NCCC1=CCCCC1)Nc1nc2ccccc2[nH]1`, the melting point is 178 to 180 °C.
Compound `CCCCNC(=O)Nc1ccc(-c2ccncc2)c(C)n1` showed a melting point of 164 to 165 °C.
Next, `CC(=O)OC1CSC(Oc2cncc(-c3ccc(F)nc3)c2)C(OC(C)=O)C1OC(C)=O` (centres undefined): 167 to 169 °C; `O=Nc1c(O)cc(N2CCCCC2)c2oc3ccccc3c12`: 181 to 185 °C; `CC(=O)Nc1nc(N2CCc3ccccc3CC2)c([N+](=O)[O-])c(=O)[nH]1`: more than 200 °C.
Next, `CC1=C(C(=O)OC(C)C)C(c2cccc([N+](=O)[O-])c2)C(C(=O)OC2CN(C(c3ccccc3)c3ccccc3)C2)=C(N)N1` (centres undefined): 95 to 98 °C; `Cc1cc(-c2[nH]c3ccc(O)cc3c2C)cc(C)c1O`: 174 to 176 °C.
With `CN1CCCCC1CCc1ccccc1NC(=O)c1cccnc1` (centres undefined), the melting point lay within 88 to 90 °C.
`CC(=O)Nc1ccc(C#N)c(F)c1F` yielded a melting point of 175 to 177 °C.
With `COCC1CN(c2ccc(C3CCC(OC(=O)c4ccccc4C4=NCCO4)CC3)cc2)C(=O)O1` (racemic), the melting point is 182 to 184 °C.
`Cc1nc(-c2ccc(C(F)(F)F)cc2)sc1C(=O)Nc1cc(Cl)ccc1-c1nnn[nH]1` had a melting point of 325 to 337 °C.
For `CN(C)S(=O)(=O)n1cc(-c2ccc(Cl)cc2Cl)nc1C1=NC(=O)C(=O)S1`, the melting point came out at 158 °C.
The compound `Cc1cc(N)c(C)c(/C=C/C(=O)O)c1` registered a melting point of 185 °C.
`Cc1cc(SC(C)C)c(NC(=O)CCCCCSc2nc3c(C)c(Cl)cc(C(C)C)c3o2)c(SC(C)C)n1` gave a melting point of 99 to 101 °C.
As for `CN1CCN(CCCN(C)C(=O)Cn2c(-c3cccc(Cl)c3)nc3cccnc32)CC1`, the melting point lay within 114 to 117 °C.
On to `O=C(O)CCCCOc1ccccc1C1(c2ccccc2)NC(=O)NC1=O` (centres undefined), for which the melting point fell in the range of 231 to 232 °C.
Compound `CCOc1ccc(-c2ccc3c(c2)C=C(C(=O)OC)CCN3)cc1OCC` returned a melting point of 159 to 164 °C.
The figure for `CC(C)(C)c1cc(C=C2NC(=O)NC2=O)cc(C(C)(C)C)c1O` is 251 to 252 °C; for `Cc1ccc2cccc(OCc3c(Cl)ccc(S(=O)(=O)N4CCC[C@H]4C(=O)NCCCNC(=O)c4ccc(C(N)=NO)cc4)c3Cl)c2n1` it is 120 to 124 °C.
`COc1ccc2cc3c(Cl)c(C#N)cnc3cc2c1` came in with a melting point of 258 to 260 °C.
Next, `C=CCNc1nc(NCCCCCCC)c2scc(C)c2n1`: 56 to 57 °C.
`Cc1cncc(-c2nc(C(F)(F)F)cn2-c2ccc(S(N)(=O)=O)cc2)c1` yielded a melting point of 242 to 243 °C.
For `CN1CCN(CCCNc2ncc3cc(-c4c(Cl)cccc4Cl)c(N)nc3n2)CC1`, the melting point was 208 to 211 °C.
As to `CCCCOCCOc1ccc(-c2ccc3c(c2)C=C(C(=O)Nc2ccc(CCCn4cnnc4)cc2)CCN3CC(C)C)cc1`, the melting point lay within 165 to 167 °C.
Compound `CCCCCCCCCCCCCCCCCCOC(=O)CCC(=O)OC1CC(C)(C)N(C)C(C)(C)C1` gave a melting point of 38 to 40 °C.
`CC(=O)c1cc(CBr)cc(CBr)c1` had a melting point of 87 to 88 °C.
Compound `CCOC(=O)Cc1csc(-c2cc3cccc(NS(=O)(=O)c4cccs4)c3[nH]2)n1` yielded a melting point of 161 to 162 °C.
Next, `CC1c2cccc3c2N(CC3)c2ccccc2N1CC#N` (centres undefined): 148 to 150 °C.
For the compound `CCCc1ccc(S(=O)(=O)c2ccc(F)cc2)cc1S(=O)(=O)NCCc1cccnc1`, the melting point lay in the range of 111 to 113 °C.
In the case of `O=C(O)c1cc(-c2ccc(Cl)cc2)nc(-c2ccc(Cl)c(Cl)c2)c1`, the melting point is 303 to 304 °C.
The figure for `Cc1nc(NC(=O)c2cnn3c(C(F)F)cc(-c4ccc(C(F)(F)F)cc4)nc23)sc1S(=O)(=O)N1CCN(C)CC1` is 269 °C; for `Oc1ccc2oc(-c3ccc(O)c(F)c3)nc2c1` it is 262 to 268 °C.
